Assay [1] concerns Mouse mammary carcinoma 4T1 cells. As to the kind of experiment: Anchorage-independent tumor cell growth assay. It counts as cell-based. Here is the method: Cells are cultured for 2 h and inhibitors are added at various concentrations in a final concentration of 0.1% DMSO. After 48 h, cell growth is assayed with the cell counting kit-8 (Wako Pure Chemical), which uses a water soluble tetrazolium salt WST8. Twenty μL of the reagent is added into each well and cells are further cultured for 2 h. The optical density is measured at 450 nm.

Assay [2] concerns the target Focal Adhesion Kinase (FAK) (Homo sapiens, UniProt Q05397). In words: FAK assay system (Focal Adhesion Kinase inhibition). It counts as biochemical.
Assay [3] addresses IGF-IR (Homo sapiens, UniProt P08069). In words: Cellular Capture ELISA of IGF-I induced autophosphorylation of the IGF-IR. The class given is cell-based. The conditions noted are these: read-out: IGF-1R IC50. How it is done: In this assay the activity of the compounds of the invention against Insulin-like growth factor I (IGF-I) induced autophosphorylation of the IGF-IR is determined.
In general terms: An ELISA detects its analyte on a solid surface through an enzyme-linked reagent.

The target in assay [4] is FAK (Mus musculus, UniProt P34152). In words: Phos IC50 (phosphorylation). It counts as cell-based.
FAK, sequence (P34152 2-1052): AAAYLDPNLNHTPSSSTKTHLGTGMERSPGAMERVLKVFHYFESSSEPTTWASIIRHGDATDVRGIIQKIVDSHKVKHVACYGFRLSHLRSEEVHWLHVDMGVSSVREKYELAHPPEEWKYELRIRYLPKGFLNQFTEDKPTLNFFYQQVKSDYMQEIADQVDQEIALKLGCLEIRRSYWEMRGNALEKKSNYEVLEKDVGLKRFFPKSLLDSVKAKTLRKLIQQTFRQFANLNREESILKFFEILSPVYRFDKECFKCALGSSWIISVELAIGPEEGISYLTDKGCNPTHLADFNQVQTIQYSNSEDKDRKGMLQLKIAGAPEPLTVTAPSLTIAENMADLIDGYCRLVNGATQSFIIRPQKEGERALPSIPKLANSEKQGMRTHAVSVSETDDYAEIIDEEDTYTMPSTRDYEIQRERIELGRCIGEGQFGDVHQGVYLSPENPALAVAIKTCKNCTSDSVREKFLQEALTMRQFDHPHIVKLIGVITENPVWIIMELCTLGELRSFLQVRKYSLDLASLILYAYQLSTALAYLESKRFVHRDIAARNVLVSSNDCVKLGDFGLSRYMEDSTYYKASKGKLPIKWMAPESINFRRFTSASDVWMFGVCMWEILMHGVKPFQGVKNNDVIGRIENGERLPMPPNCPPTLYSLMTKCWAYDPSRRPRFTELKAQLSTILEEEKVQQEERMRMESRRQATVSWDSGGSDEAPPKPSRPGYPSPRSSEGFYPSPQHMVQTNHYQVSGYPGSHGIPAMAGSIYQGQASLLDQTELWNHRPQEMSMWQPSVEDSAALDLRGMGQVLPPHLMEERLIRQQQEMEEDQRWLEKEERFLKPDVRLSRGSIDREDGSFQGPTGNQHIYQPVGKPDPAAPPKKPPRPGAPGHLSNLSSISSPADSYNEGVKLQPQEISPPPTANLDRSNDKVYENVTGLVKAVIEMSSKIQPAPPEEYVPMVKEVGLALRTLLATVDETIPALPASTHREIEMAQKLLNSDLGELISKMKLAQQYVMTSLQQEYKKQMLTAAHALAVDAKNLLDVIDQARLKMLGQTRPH

pIC50: −log10 of the molar value. Like-named read-outs stand apart in the source and are kept apart here.

IGF-IR, sequence (P08069 31-1367): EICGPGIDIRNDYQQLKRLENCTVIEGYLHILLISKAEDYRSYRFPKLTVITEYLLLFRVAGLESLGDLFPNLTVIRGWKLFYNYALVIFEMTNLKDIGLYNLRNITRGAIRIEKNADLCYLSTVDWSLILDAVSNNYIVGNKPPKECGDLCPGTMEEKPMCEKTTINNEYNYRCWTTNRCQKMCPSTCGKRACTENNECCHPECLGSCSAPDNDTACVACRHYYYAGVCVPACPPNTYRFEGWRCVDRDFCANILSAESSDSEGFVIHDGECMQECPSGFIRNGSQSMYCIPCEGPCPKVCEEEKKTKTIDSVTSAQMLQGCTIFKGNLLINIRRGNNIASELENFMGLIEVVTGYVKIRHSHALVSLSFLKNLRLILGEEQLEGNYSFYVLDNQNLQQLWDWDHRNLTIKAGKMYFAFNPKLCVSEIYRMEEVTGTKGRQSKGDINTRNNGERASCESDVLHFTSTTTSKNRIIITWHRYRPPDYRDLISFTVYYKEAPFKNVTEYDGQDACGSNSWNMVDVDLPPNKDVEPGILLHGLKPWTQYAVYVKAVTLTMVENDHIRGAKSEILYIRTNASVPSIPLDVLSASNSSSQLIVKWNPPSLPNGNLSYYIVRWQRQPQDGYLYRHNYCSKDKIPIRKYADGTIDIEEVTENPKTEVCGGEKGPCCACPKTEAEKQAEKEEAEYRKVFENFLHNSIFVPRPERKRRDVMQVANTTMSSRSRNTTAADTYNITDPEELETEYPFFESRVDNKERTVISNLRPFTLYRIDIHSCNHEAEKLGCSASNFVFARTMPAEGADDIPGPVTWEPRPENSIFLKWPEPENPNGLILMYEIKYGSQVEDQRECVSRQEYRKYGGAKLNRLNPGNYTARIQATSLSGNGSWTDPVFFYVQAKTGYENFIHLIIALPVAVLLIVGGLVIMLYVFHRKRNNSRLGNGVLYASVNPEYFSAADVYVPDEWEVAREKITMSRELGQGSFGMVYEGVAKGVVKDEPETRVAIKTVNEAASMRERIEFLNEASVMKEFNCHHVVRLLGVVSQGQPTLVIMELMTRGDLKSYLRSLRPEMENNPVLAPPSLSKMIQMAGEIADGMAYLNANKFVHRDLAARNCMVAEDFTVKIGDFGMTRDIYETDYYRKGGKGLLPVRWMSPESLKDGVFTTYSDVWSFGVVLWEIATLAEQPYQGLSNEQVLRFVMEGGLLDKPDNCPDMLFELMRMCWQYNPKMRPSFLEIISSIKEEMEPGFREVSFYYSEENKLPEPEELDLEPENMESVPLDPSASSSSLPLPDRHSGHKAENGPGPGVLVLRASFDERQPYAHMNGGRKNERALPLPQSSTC
Focal Adhesion Kinase (FAK), sequence (Q05397 384-706): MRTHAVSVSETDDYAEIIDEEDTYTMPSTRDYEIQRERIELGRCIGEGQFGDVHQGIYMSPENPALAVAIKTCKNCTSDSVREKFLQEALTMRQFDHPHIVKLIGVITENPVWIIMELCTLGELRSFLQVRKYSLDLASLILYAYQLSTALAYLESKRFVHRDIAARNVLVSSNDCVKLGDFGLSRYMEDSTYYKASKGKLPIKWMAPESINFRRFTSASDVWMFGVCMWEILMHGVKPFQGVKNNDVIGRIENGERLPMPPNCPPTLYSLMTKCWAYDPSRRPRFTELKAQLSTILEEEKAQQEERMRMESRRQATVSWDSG

Broadly, the pIC50 is the IC50 on a negative log10 scale, so that one unit is a factor of ten. On to `CNS(=O)(=O)c1ccccc1Nc1nc(Nc2ccccc2OC(F)(F)F)ncc1Cl` [Example 20-3], for which the pIC50 in assay [1] (Mus musculus, 4T1) is 5.60; in assay [2] (read-out: FAK IC50) it was 7.38; in assay [3], 5.56; in assay [4], 6.40.

For `CNS(=O)(=O)c1ccccc1Nc1nc(Nc2cc(OCCCN3CCOCC3)ccc2OC)ncc1Br` [Example 3-73], the pIC50 in assay [1] (Mus musculus, 4T1) was 6.54; in assay [2] (read-out: FAK IC50), 7.96; in assay [3], 5.79; in assay [4], 7.52.

As to `CNS(=O)(=O)c1ccccc1Nc1nc(Nc2cc(-c3ccncc3)ccc2C)ncc1Br` [Example 3-54], the pIC50 in assay [2] (read-out: FAK IC50) was 9.05; in assay [3] it was greater than 7.10; in assay [4] it was 8.00.

With `COc1cc(N2CCOCC2)ccc1Nc1ncc(Cl)c(Nc2ccccc2S(=O)(=O)C2CCCC2)n1` [Example 33-2], the negative logarithm of the IC50 (pIC50) in assay [1] (Mus musculus, 4T1) was 6.60; in assay [2] (read-out: FAK IC50) it was 8.28; in assay [3], 7.00; in assay [4] it was 7.22.

For the molecule `COc1cc(N2CCC(N(C)C(C)=O)C2)ccc1Nc1ncc(Cl)c(Nc2ccccc2S(=O)(=O)NC(C)C)n1` (stereo not drawn) [Example 19-14], the negative logarithm of the IC50 (pIC50) in assay [1] (Mus musculus, 4T1) was 5.95; in assay [2] (FAK IC50), 8.59; in assay [3], 6.36.

For `CCCCS(=O)(=O)c1ccccc1Nc1nc(Nc2ccc(N3CCOCC3)cc2OC)ncc1Cl` [Example 34-1], the pIC50 was 6.43 in assay [1] (Mus musculus, 4T1); 8.10 in assay [2] (read-out: FAK IC50); 6.55 in assay [3]; 7.00 in assay [4].

For the molecule `CNC(=O)c1ccccc1Nc1nc(Nc2ccc(N3CCC(N4CCCCC4)CC3)cc2OC)ncc1Cl` [Example 7-1], the pIC50 in assay [1] (Mus musculus, 4T1) was 6.27; in assay [2] (read-out: FAK IC50), 8.33; in assay [3] it was 6.72; in assay [4], 6.22.

In the case of `CNS(=O)(=O)c1ccccc1Nc1nc(Nc2cc(OC)ccc2OC)ncc1Br` [Example 3-15], the pIC50 is 6.10 in assay [1] (Mus musculus, 4T1); 8.15 in assay [2] (read-out: FAK IC50); 6.03 in assay [3]; 7.70 in assay [4].

On to `CNS(=O)(=O)c1ccccc1Nc1nc(Nc2cccc3[nH]ccc23)ncc1Br` [Example 3-11], for which the pIC50 in assay [1] (Mus musculus, 4T1) was 6.52; in assay [2] (read-out: FAK IC50), 8.05; in assay [3], 6.70; in assay [4], 7.40.

Consider `COc1cc(N2CCOCC2)ccc1Nc1ncc(Cl)c(Nc2ccccc2S(=O)(=O)NC2CCC2)n1` [Example 24-1], for which the negative-log IC50 (pIC50) in assay [1] (Mus musculus, 4T1) was 6.36; in assay [2] (read-out: FAK IC50) it was 8.44; in assay [3], 7.30; in assay [4], 6.96.

For `CNS(=O)(=O)c1ccccc1Nc1nc(Nc2cc(-c3ccncc3)ccc2OC)ncc1Br` [Example 3-65], the negative logarithm of the IC50 (pIC50) was 7.00 in assay [1] (Mus musculus, 4T1); 8.10 in assay [2] (read-out: FAK IC50); 6.82 in assay [3]; 7.10 in assay [4].

Take `CNS(=O)(=O)c1ccccc1Nc1nc(Nc2cc(-c3cccnc3)ccc2OC)ncc1Br` [Example 3-66]: the pIC50 is 7.15 in assay [1] (Mus musculus, 4T1); 9.00 in assay [2] (read-out: FAK IC50); 6.60 in assay [3]; 7.10 in assay [4].

With `COc1cc(OC2CCN(C)C2)ccc1Nc1ncc(Cl)c(Nc2ccccc2S(=O)(=O)NC(C)C)n1` (stereo not drawn) [Example 19-20], the negative logarithm of the IC50 (pIC50) was 7.15 in assay [1] (Mus musculus, 4T1); 8.80 in assay [2] (read-out: FAK IC50); 6.64 in assay [3]; 7.52 in assay [4].

For `CNC(=O)c1ccccc1Nc1nc(Nc2cc(F)ccc2OC)ncc1Br` [Example 8-3], the pIC50 in assay [1] (Mus musculus, 4T1) was 6.00; in assay [2] (read-out: FAK IC50) it was 7.89; in assay [3] it was less than 5.00; in assay [4], 6.66.

Turning to `CNS(=O)(=O)c1ccccc1Nc1nc(Nc2cc(OC)c(OC)cc2C)ncc1Br` [Example 3-17], the pIC50 in assay [1] (Mus musculus, 4T1) was 6.70; in assay [2] (FAK assay system, read-out: FAK inhibition IC50), 8.30 to 9.00; in assay [2] (read-out: FAK IC50), 8.55; in assay [3], greater than 7.10; in assay [4], 7.52.

As to `CNC(=O)c1ccccc1Nc1nc(Nc2ccc(OC3CCN(C)CC3)cc2OC)ncc1Cl` [Example 7-5], the pIC50 in assay [1] (Mus musculus, 4T1) is 6.70; in assay [2] (read-out: FAK IC50), 8.21; in assay [3] it was 6.60; in assay [4], 6.52.

With `CNC1CCN(c2ccc(Nc3ncc(Cl)c(Nc4ccccc4S(=O)(=O)NC(C)C)n3)c(OC)c2F)C1` (stereo not drawn) [Example 19-12], the pIC50 in assay [1] (Mus musculus, 4T1) was 6.15; in assay [2] (read-out: FAK IC50), 8.05; in assay [3] it was 6.20; in assay [4], less than 5.00.

On to `CCN1CCC(Oc2ccc(Nc3ncc(Cl)c(Nc4ccccc4S(=O)(=O)NC)n3)c(OC)c2)C1` (stereo not drawn) [Example 20-30], for which the negative logarithm of the IC50 (pIC50) in assay [1] (Mus musculus, 4T1) was 7.10; in assay [2] (read-out: FAK IC50), 8.12; in assay [3] it was 6.17; in assay [4], 6.52.

For `COc1cc(N2CCOCC2)ccc1Nc1ncc(Cl)c(Nc2ccccc2S(C)(=O)=O)n1` [Example 31-2], the negative-log IC50 (pIC50) in assay [1] (Mus musculus, 4T1) is 6.54; in assay [2] (FAK IC50), 7.51; in assay [3], 6.38.

In the case of `CNS(=O)(=O)c1ccccc1Nc1nc(Nc2ccc(OC3CCN(C)CC3)cc2OC)ncc1Cl` [Example 20-27], the negative logarithm of the IC50 (pIC50) was 7.30 in assay [1] (Mus musculus, 4T1); 7.92 in assay [2] (read-out: FAK IC50); 6.54 in assay [3]; 6.07 in assay [4].

`CNS(=O)(=O)c1ccccc1Nc1nc(Nc2ccc(N3CCS(=O)(=O)CC3)cc2OC)ncc1Br` [Example 3-44]: the negative-log IC50 (pIC50) was 7.05 in assay [1] (Mus musculus, 4T1); 7.96 in assay [2] (read-out: FAK IC50); 7.05 in assay [3]; 7.30 in assay [4].

Turning to `CNS(=O)(=O)c1ccccc1Nc1nc(Nc2ccc(-n3ccnc3C)cc2OC)ncc1Br` [Example 3-83], the pIC50 is 6.49 in assay [1] (Mus musculus, 4T1); 7.70 in assay [2] (FAK IC50); 6.17 in assay [3].

`COc1cc(N2CCOCC2)ccc1Nc1ncc(Cl)c(Nc2ccccc2S(=O)(=O)NCC(C)C)n1` [Example 22-3]: the pIC50 in assay [1] (Mus musculus, 4T1) is 6.82; in assay [2] (read-out: FAK IC50), 8.18; in assay [3], 6.59; in assay [4] it was 7.05.

Turning to `COc1cc(OC2CCN(C)CC2)ccc1Nc1ncc(Cl)c(Nc2ccccc2S(=O)(=O)NC2CCCC2)n1` [Example 25-2], the negative logarithm of the IC50 (pIC50) in assay [1] (Mus musculus, 4T1) was 6.89; in assay [2] (read-out: FAK IC50), 8.52; in assay [3] it was 6.19; in assay [4], 6.40.

As to `CNS(=O)(=O)c1ccccc1Nc1nc(Nc2ccc(-n3ccnc3)cc2OC)ncc1Br` [Example 3-48], the pIC50 in assay [1] (Mus musculus, 4T1) is 6.52; in assay [2] (read-out: FAK IC50) it was 8.15; in assay [3], 6.68; in assay [4], 7.15.

For the molecule `CCNC(=O)c1ccccc1Nc1nc(Nc2ccc(N3CCOCC3)cc2OC)ncc1Cl` [Example 9-5], the negative logarithm of the IC50 (pIC50) in assay [1] is 5.80; in assay [2] (read-out: FAK IC50) it was 7.66; in assay [3] it was 6.22; in assay [4], 6.44.

For `CCC(CC)NS(=O)(=O)c1ccccc1Nc1nc(Nc2ccc(N3CCC(NC)C3)cc2OC)ncc1Cl` (stereo not drawn) [Example 23-3], the negative logarithm of the IC50 (pIC50) in assay [1] (Mus musculus, 4T1) is 5.95; in assay [2] (read-out: FAK IC50) it was 8.77; in assay [3], 6.09; in assay [4], 6.00.

Regarding `COc1cc(N2CCC(N3CCN(C)CC3)CC2)ccc1Nc1ncc(Cl)c(Nc2ccccc2S(=O)(=O)NC(C)C)n1` [Example 19-4], the pIC50 in assay [1] (Mus musculus, 4T1) is 6.47; in assay [2] (read-out: FAK IC50), 8.80; in assay [3], 6.85; in assay [4], 6.70.

Turning to `COc1cc(OCC2CCCN(C)C2)ccc1Nc1ncc(Cl)c(Nc2ccccc2S(=O)(=O)NC(C)C)n1` (stereo not drawn) [Example 19-3], the negative logarithm of the IC50 (pIC50) in assay [1] (Mus musculus, 4T1) was 7.05; in assay [2] (FAK IC50), greater than 9.00; in assay [3], 6.19.

As for `CNS(=O)(=O)c1ccccc1Nc1nc(Nc2cc(N3CCC(N(C)C)C3)ccc2OC)ncc1Cl` (stereo not drawn) [Example 20-20], the pIC50 was 8.51 in assay [2] (read-out: FAK IC50) and 7.00 in assay [3].

As for `CNS(=O)(=O)c1ccccc1Nc1nc(Nc2cccc3cn[nH]c23)ncc1Br` [Example 3-13], the negative-log IC50 (pIC50) in assay [1] (Mus musculus, 4T1) was 6.22; in assay [2] (FAK IC50), 7.24; in assay [3] it was 6.13.

Regarding `CCNC1CCN(c2ccc(Nc3ncc(Cl)c(Nc4ccccc4S(=O)(=O)NC(C)C)n3)c(OC)c2)C1` (stereo not drawn) [Example 19-2], the pIC50 in assay [1] (Mus musculus, 4T1) is 6.42; in assay [2] (FAK IC50), 8.80; in assay [3], 6.04.

In the case of `CCCS(=O)(=O)c1ccccc1Nc1nc(Nc2ccc(N3CCC(C(N)=O)CC3)cc2OC)ncc1Cl` [Example 26-5], the pIC50 is 6.64 in assay [1] (Mus musculus, 4T1); 8.68 in assay [2] (FAK IC50); 5.82 in assay [3].

In the case of `CNS(=O)(=O)c1ccccc1Nc1nc(Nc2ccc(OC3CCNCC3)cc2OC)ncc1Br` [Example 3-79], the pIC50 in assay [1] (Mus musculus, 4T1) was 6.92; in assay [2] (read-out: FAK IC50), 8.30; in assay [4] it was 5.89.

As to `CNS(=O)(=O)c1ccccc1Nc1nc(Nc2ccc(OCCCN3CCOCC3)cc2OC)ncc1Br` [Example 3-70], the pIC50 is 6.89 in assay [1] (Mus musculus, 4T1); 8.46 in assay [2] (read-out: FAK IC50); 7.70 in assay [4].

For `CCOc1ccc(-c2ccccc2)cc1Nc1ncc(Br)c(Nc2ccccc2S(=O)(=O)NC)n1` [Example 3-29], the negative-log IC50 (pIC50) in assay [1] (Mus musculus, 4T1) was less than 5.00; in assay [2] (read-out: FAK IC50), 7.05; in assay [4], 6.22.

`CNC(=O)c1ccccc1Nc1nc(Nc2cc(N3CCOCC3)ccc2OC)ncc1Br` [Example 8-1]: the pIC50 in assay [1] (Mus musculus, 4T1) is 6.48; in assay [2] (read-out: FAK IC50), 8.18; in assay [4], 6.22.

For `CNC(=O)c1cc(N2CCC(N3CCCCC3)CC2)ccc1Nc1nc(Nc2ccc(F)cc2OC)ncc1Cl` [Example 16-4], the pIC50 was 6.04 in assay [1] (Mus musculus, 4T1); 8.02 in assay [2] (read-out: FAK IC50); less than 5.00 in assay [4].

Regarding `CCC[S+]([O-])c1ccccc1Nc1nc(Nc2ccc(F)cc2OC)ncc1Cl` (stereo not drawn) [Example 34-7], the negative-log IC50 (pIC50) in assay [1] (Mus musculus, 4T1) is 5.57; in assay [2] (read-out: FAK IC50), 7.57; in assay [4], less than 5.00.

These data come from US7893074B2, “2, 4-pyrimidinediamines useful in the treatment of neoplastic diseases, inflammatory and immune system disorders” (Novartis AG, priority 2003, dated 2011).
